# pIC50: −log10 of the molar value. Like-named read-outs stand apart in the source and are kept apart here.
# Key:
# [1] = target: panel of more than 300 wild-type and mutant kinases (313 kinase panel) (Homo sapiens, UniProt P22612); test: Kinase profiling in a biochemical assay panel (mobility shift assays and ELISA), %-inhibition at 1 μM; selectivity entropy; details: kinase PKACγ; 1 μM
# [2] = target: panel of more than 300 wild-type and mutant kinases (313 kinase panel) (Homo sapiens, UniProt Q00535); test: as above; details: kinase CDK5/p25; 1 μM compound
# [3] = target: panel of more than 300 wild-type and mutant kinases (313 kinase panel) (Homo sapiens, UniProt P19525); test: as above; details: kinase PKR; 1 μM
# [4] = target: panel of more than 300 wild-type and mutant kinases (313 kinase panel) (Homo sapiens, UniProt O95819); test: as above; details: kinase HGK; compound at 1 μM
# [5] = target: panel of more than 300 wild-type and mutant kinases (313 kinase panel) (Homo sapiens, UniProt Q9UM73, R1275Q); test: as above; details: kinase ALK(R1275Q); 1 μM compound
# [6] = target: panel of more than 300 wild-type and mutant kinases (313 kinase panel) (Homo sapiens, UniProt P11362, V561M); test: as above; details: kinase FGFR1(V561M); compound at 1 μM
# [7] = target: panel of more than 300 wild-type and mutant kinases (313 kinase panel) (Homo sapiens, UniProt P09619); test: as above; details: kinase PDGFRβ; 1 μM
# [8] = target: T1, panel of more than 300 wild-type and mutant kinases (313 kinase panel) (Homo sapiens, UniProt Q16832); test: as above; details: kinase DDR2; compound at 1 μM
# T1 sequence (Q16832 22-855): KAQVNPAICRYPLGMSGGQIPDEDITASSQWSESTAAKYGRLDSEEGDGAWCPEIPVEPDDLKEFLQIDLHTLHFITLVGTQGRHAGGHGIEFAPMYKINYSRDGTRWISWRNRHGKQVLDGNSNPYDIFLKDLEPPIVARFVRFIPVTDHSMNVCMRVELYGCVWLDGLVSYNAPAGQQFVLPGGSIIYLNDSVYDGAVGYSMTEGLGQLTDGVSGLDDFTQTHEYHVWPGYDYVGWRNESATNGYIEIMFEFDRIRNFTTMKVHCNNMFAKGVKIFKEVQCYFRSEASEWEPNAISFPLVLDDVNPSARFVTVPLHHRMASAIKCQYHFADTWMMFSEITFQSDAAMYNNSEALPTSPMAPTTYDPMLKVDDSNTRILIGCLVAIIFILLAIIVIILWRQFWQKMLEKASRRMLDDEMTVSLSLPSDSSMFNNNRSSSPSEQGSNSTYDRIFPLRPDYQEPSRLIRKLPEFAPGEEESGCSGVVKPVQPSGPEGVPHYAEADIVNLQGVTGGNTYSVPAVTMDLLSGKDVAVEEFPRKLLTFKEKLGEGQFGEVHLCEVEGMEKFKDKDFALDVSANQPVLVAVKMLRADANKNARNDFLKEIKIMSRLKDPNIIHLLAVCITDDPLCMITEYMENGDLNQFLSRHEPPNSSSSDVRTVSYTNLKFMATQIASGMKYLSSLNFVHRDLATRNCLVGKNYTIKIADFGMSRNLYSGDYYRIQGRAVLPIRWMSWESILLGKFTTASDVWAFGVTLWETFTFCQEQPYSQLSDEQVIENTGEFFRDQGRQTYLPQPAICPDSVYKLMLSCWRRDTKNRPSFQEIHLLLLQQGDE
# [9] = tested on: forty-four human cancer cell lines; test: Cell proliferation assay (ATPlite, 72 hours) in the 44 cell line Oncolines panel; type: cell-based; details: Homo sapiens
# [10] = A 172, read-out: cell panel IC50, A-172
# [11] = A204, cell line A-204, read-out: cell panel IC50, A-204
# [12] = A498, read-out: cell panel IC50, A-498
# [13] = A549, read-out: cell panel IC50, A-549
# [14] = A-375, cell line A375, read-out: cell panel IC50, A375
# [15] = A-427, read-out: cell panel IC50, A-427
# [16] = AU565, read-out: cell panel IC50, AU-565
# [17] = BT-549, read-out: cell panel IC50, BT-549
# [18] = HCT-116, read-out: cell panel IC50, HCT-116
# [19] = K562, read-out: cell panel IC50, K-562
# [20] = LS174T, read-out: cell panel IC50, LS 174T
# [21] = SHP77, cell line SHP-77, read-out: cell panel IC50, SHP-77
# [22] = SW-620, cell line SW620, read-out: cell panel IC50, SW620
# [23] = U2OS, cell line U-2 OS, read-out: cell panel IC50, U-2 OS
# [24] = cell line J82, read-out: cell panel IC50, J82
# [25] = cell line PA-1, read-out: cell panel IC50, PA-1
# [26] = cell line SJCRH30, read-out: cell panel IC50, SJCRH30
# [27] = cell line SR, read-out: cell panel IC50, SR
# [28] = U-87 MG cell line, ATPlite, 72 hours, read-out: IC50 in cell proliferation assay (table S5 cellpanel data)
# [29] = cell line 769-P, read-out: cell panel IC50, 769-P
# [30] = cell line 786-0, read-out: cell panel IC50, 786-0
# [31] = cell line ACHN, read-out: cell panel IC50, ACHN
# [32] = cell line AN3 CA, read-out: cell panel IC50, AN3 CA
# [33] = cell line BT-20, read-out: cell panel IC50, BT-20
# [34] = cell line BxPC-3, read-out: cell panel IC50, BxPC-3
# [35] = cell line C-33 A, read-out: cell panel IC50, C-33 A
# [36] = cell line CAL 27, read-out: cell panel IC50, CAL 27
# [37] = cell line CCRF-CEM, read-out: cell panel IC50, CCRF-CEM
# [38] = cell line DLD-1, read-out: cell panel IC50, DLD-1
# [39] = cell line FaDu, read-out: cell panel IC50, FaDu
# [40] = cell line HCT-15, read-out: cell panel IC50, HCT-15
# [41] = cell line Hs 578T, read-out: cell panel IC50, Hs 578T
# [42] = cell line Jurkat E6.1, read-out: cell panel IC50, Jurkat E6.1
# [43] = cell line LoVo, read-out: cell panel IC50, LoVo
# [44] = cell line MG-63, read-out: cell panel IC50, MG-63
# [45] = cell line MOLT-4, read-out: cell panel IC50, MOLT-4
# [46] = cell line MeWo, read-out: cell panel IC50, MeWo
# [47] = cell line NCI-H82, read-out: cell panel IC50, NCI-H82
# [48] = cell line NCI-H460, read-out: cell panel IC50, NCI-H460
# [49] = cell line OVCAR-3, read-out: cell panel IC50, OVCAR-3
# [50] = cell line RPMI-7951, read-out: cell panel IC50, RPMI-7951
# [51] = cell line SK-N-AS, read-out: cell panel IC50, SK-N-AS
# [52] = cell line SW48, read-out: cell panel IC50, SW48
# [53] = cell line SW480, read-out: cell panel IC50, SW480
compound,measurement,setting,value
CC(=O)Nc1cccc(-n2c(=O)n(C3CC3)c(=O)c3c(Nc4ccc(I)cc4F)n(C)c(=O)c(C)c32)c1 [trametinib],%-inhibition of PKACγ,[1],2%
same,"%-inhibition, CDK5/p25",[2],19%
same,%-inhibition of PKR,[3],1.13%
same,%-inhibition of HGK,[4],-3.71%
same,"%-inhibition, ALK(R1275Q)",[5],-1.83%
same,%-inhibition of FGFR1(V561M),[6],-3.3%
same,%-inhibition of PDGFRβ,[7],3.44%
same,%-inhibition of DDR2,[8],0.612%
same,pIC50,[9]; [10],6.96
same,pIC50,[9]; [11],6.20
same,pIC50,[9]; [12],4.65
same,pIC50,[9]; [13],7.24
same,pIC50,[9]; [14],7.89
same,pIC50,[9]; [15],7.77
same,pIC50,[9]; [16],4.71
same,pIC50,[9]; [17],4.75
same,pIC50,[9]; [18],7.46
same,pIC50,[9]; [19],7.43
same,pIC50,[9]; [20],7.43
same,pIC50,[9]; [21],< 4.50
same,pIC50,[9]; [22],8.87
same,pIC50,[9]; [23],6.51
same,pIC50,[9]; [24],< 4.50
same,pIC50,[9]; [25],6.36
same,pIC50,[9]; [26],6.11
same,pIC50,[9]; [27],6.02
same,pIC50,[9]; [28],6.64
same,pIC50,[9]; [29],7.07
same,pIC50,[9]; [30],4.59
same,pIC50,[9]; [31],6.30
same,pIC50,[9]; [32],4.87
same,pIC50,[9]; [33],< 4.50
same,pIC50,[9]; [34],7.54
same,pIC50,[9]; [35],8.10
same,pIC50,[9]; [36],7.24
same,pIC50,[9]; [37],4.55
same,pIC50,[9]; [38],6.31
same,pIC50,[9]; [39],7.85
same,pIC50,[9]; [40],5.69
same,pIC50,[9]; [41],6.43
same,pIC50,[9]; [42],< 4.50
same,pIC50,[9]; [43],8.10
same,pIC50,[9]; [44],6.92
same,pIC50,[9]; [45],4.71
same,pIC50,[9]; [46],7.48
same,pIC50,[9]; [47],4.61
same,pIC50,[9]; [48],7.85
same,pIC50,[9]; [49],< 4.50
same,pIC50,[9]; [50],8.00
same,pIC50,[9]; [51],8.02
same,pIC50,[9]; [52],8.92
same,pIC50,[9]; [53],6.24
CO[C@H]1C[C@@H]2CC[C@@H](C)[C@@](O)(O2)C(=O)C(=O)N2CCCC[C@H]2C(=O)O[C@H]([C@H](C)C[C@@H]2CC[C@@H](OC(=O)C(C)(CO)CO)[C@H](OC)C2)CC(=O)[C@H](C)/C=C(\C)[C@@H](O)[C@@H](OC)C(=O)[C@H](C)C[C@H](C)/C=C/C=C/C=C/1C [temsirolimus],%-inhibition of PKACγ,[1],-6%
same,"%-inhibition, CDK5/p25",[2],-22%
same,%-inhibition of PKR,[3],-14%
same,%-inhibition of HGK,[4],-0.299%
same,"%-inhibition, ALK(R1275Q)",[5],-1.39%
same,%-inhibition of FGFR1(V561M),[6],-9%
same,%-inhibition of PDGFRβ,[7],-2.27%
same,%-inhibition of DDR2,[8],-4%
same,pIC50,[9]; [10],8.00
same,pIC50,[9]; [11],5.61
same,pIC50,[9]; [12],5.82
same,pIC50,[9]; [13],6.13
same,pIC50,[9]; [14],< 5.50
same,pIC50,[9]; [15],7.02
same,pIC50,[9]; [16],7.20
same,pIC50,[9]; [17],7.77
same,pIC50,[9]; [18],6.60
same,pIC50,[9]; [19],< 5.50
same,pIC50,[9]; [20],7.06
same,pIC50,[9]; [21],< 5.50
same,pIC50,[9]; [22],< 5.50
same,pIC50,[9]; [23],7.39
same,pIC50,[9]; [24],7.59
same,pIC50,[9]; [25],5.88
same,pIC50,[9]; [26],< 5.50
same,pIC50,[9]; [27],8.10
same,pIC50,[9]; [28],6.34
same,pIC50,[9]; [29],8.05
same,pIC50,[9]; [30],6.37
same,pIC50,[9]; [31],< 5.50
same,pIC50,[9]; [32],6.10
same,pIC50,[9]; [33],7.48
same,pIC50,[9]; [34],< 5.50
same,pIC50,[9]; [35],7.47
same,pIC50,[9]; [36],< 5.50
same,pIC50,[9]; [37],7.82
same,pIC50,[9]; [38],6.90
same,pIC50,[9]; [39],< 5.50
same,pIC50,[9]; [40],5.61
same,pIC50,[9]; [41],7.00
same,pIC50,[9]; [42],6.91
same,pIC50,[9]; [43],< 5.50
same,pIC50,[9]; [44],5.65
same,pIC50,[9]; [45],7.68
same,pIC50,[9]; [46],7.72
same,pIC50,[9]; [47],< 5.50
same,pIC50,[9]; [48],7.33
same,pIC50,[9]; [49],< 5.50
same,pIC50,[9]; [50],8.92
same,pIC50,[9]; [51],6.62
same,pIC50,[9]; [52],< 5.50
same,pIC50,[9]; [53],7.74
